Measured values reported in patent publication US20180000085A1, “USE OF PICOLINAMIDE COMPOUNDS WITH FUNGICIDAL ACTIVITY” (DOW AGROSCIENCES LLC, priority 2014, published 2018).

Columns and labels:
Format in all cases: in vivo
Zymoseptoria tritici = experiment: Leaf blotch of wheat (SEPTTR) disease control on wheat seedlings; settings: for SEPTTR 1DP, LV activity at 125.1 g/H (% Control rating) / SEPTTR 3DC, LV activity at 125.1 g/H (% Control rating) / SEPTTR 1DP disease control rating, LV activity at 125.1 g/H / SEPTTR 3DC disease control rating, LV activity at 125.1 g/H: low volume application; for SEPTTR 1DP disease control rating, LV activity at 125.1 g/H: 1 day protectant; for SEPTTR 3DC disease control rating, LV activity at 125.1 g/H: 3 day curative
Puccinia triticina = experiment: Wheat brown rust (PUCCRT) disease control on wheat seedlings; design: key to PUCCRT 3DC, HV activity at 100 ppm (% control rating) / PUCCRT disease control, 3DC / PUCCRT 1DP disease control rating, HV activity / PUCCRT 3DC disease control rating, HV activity / PUCCRT 3DC, LV activity at 125.1 g/H (% Control rating) / PUCCRT 1DP, LV activity at 125.1 g/H (% Control rating) / PUCCRT 3DC disease control rating, LV activity at 125.1 g/H / PUCCRT 1DP disease control rating, LV activity at 125.1 g/H / PUCCRT 3DC disease control rating, HV activity at 100 ppm / PUCCRT 1DP disease control rating, HV activity at 100 ppm / HV activity at 100 ppm PUCCRT 3DC (disease control rating) / LV activity at 125.1 g/H PUCCRT 1DP (disease control rating) / LV activity at 125.1 g/H PUCCRT 3DC (disease control rating): A: > 80; B: ≤ 80; C: Not Tested; D: No Activity Observed in the Reported Assay; settings: for PUCCRT 1DP, LV activity at 125.1 g/H (% Control rating) / PUCCRT 3DC, LV activity at 125.1 g/H (% Control rating) / PUCCRT 1DP disease control rating, LV activity at 125.1 g/H / PUCCRT 3DC disease control rating, LV activity at 125.1 g/H: low volume application; for PUCCRT 1DP disease control rating, LV activity at 125.1 g/H: 1 day protectant; for PUCCRT 3DC disease control rating, LV activity at 125.1 g/H: 3 day curative
Cercospora beticola = experiment: Leaf spot of sugar beets (CERCBE) disease control; settings: 100 ppm; 1 Day Protectant; sugar beet
Experimental: All fungicides were evaluated using the aforementioned method for their activity vs. all target diseases, unless stated otherwise. Wheat leaf blotch and brown rust activity were also evaluated using track spray applications, in which case the fungicides were formulated as EC formulations, containing 0.1% Trycol 5941 in the spray solutions. Wheat plants (variety Yuma) were grown from seed in a greenhouse in 50% mineral soil/50% soil-less Metro mix until the first leaf was fully emerged, with 7-10 seedlings per pot. These plants were inoculated with an aqueous spore suspension of Zymoseptoria tritici either prior to or after fungicide treatments. After inoculation the plants were kept in 100% relative humidity (one day in a dark dew chamber followed by two to three days in a lighted dew chamber at 20° C.) to permit spores to germinate and infect the leaf. The plants were then transferred to a greenhouse set at 20° C. for disease to develop. When disease symptoms were fully expressed on the 1st leaves of untreated plants, infection levels were assessed on a scale of 0 to 100 percent disease severity. Percent disease control was calculated using the ratio of disease severity on treated plants relative to untreated plants. Example F: Evaluation of Fungicidal Activity: Leaf Spot of Sugar Beets (Cercospora beticola; Bayer Code CERCBE) Sugar beet plants (variety HH88) were grown in soil-less Metro mix and trimmed regularly to maintain a uniform plant size prior to test. Plants were inoculated with a spore suspension 24 hr after fungicide treatments. Inoculated plants were kept in a dew chamber at 22° C. for 48 hr then incubated in a greenhouse set at 24° C. under a clear plastic hood with bottom ventilation until disease symptoms were fully expressed. Fungicide formulation, application and disease assessment on the sprayed leaves followed the procedures as described in the Example A.

Row | SMILES | SEPTTR 1DP, LV activity at 125.1 g/H (% Control rating) (Zymoseptoria tritici; 1 Day Protectant) | SEPTTR 3DC, LV activity at 125.1 g/H (% Control rating) (Zymoseptoria tritici; 3 Day Curative) | PUCCRT 1DP, LV activity at 125.1 g/H (% Control rating) (Puccinia triticina; 1 Day Protectant) | PUCCRT 3DC, LV activity at 125.1 g/H (% Control rating) (Puccinia triticina; 3 Day Curative) | CERCBE disease control, 1DP (Cercospora beticola) | further results
1 | COc1ccnc(C(=O)N[C@@H](C)C(=O)O[C@@H](C)[C@H](Oc2cccc(Cl)c2)C(C)C)c1OC(C)=O [Cmpd 566] | B (≤ 80) | A (> 80) | A (> 80) | A (> 80) | B (≤ 80) | 
2 | CCC[C@@H](Oc1ccccc1)[C@H](C)OC(=O)[C@H](C)NC(=O)c1nccc(OC)c1OCOC(C)=O [Cmpd 699] |  |  |  |  | A (> 80) | SEPTTR 1DP disease control rating, LV activity at 125.1 g/H (Zymoseptoria tritici): A (> 80); SEPTTR 3DC disease control rating, LV activity at 125.1 g/H (Zymoseptoria tritici): A (> 80); PUCCRT 1DP disease control rating, LV activity at 125.1 g/H (Puccinia triticina): A (> 80); PUCCRT 3DC disease control rating, LV activity at 125.1 g/H (Puccinia triticina): A (> 80)
3 | COc1ccnc(C(=O)N[C@@H](C)C(=O)O[C@@H](C)[C@H](Oc2ccccc2)c2ccccc2)c1OCOC(C)=O [Cmpd 500] | A (> 80) | A (> 80) | A (> 80) | A (> 80) | A (> 80) | 
4 | COc1ccnc(C(=O)N[C@@H](C)C(=O)O[C@@H](C)[C@H](Oc2cc(F)cc(Cl)c2)C(C)C)c1OCOC(C)=O [Cmpd 617] | A (> 80) | A (> 80) | A (> 80) | A (> 80) | B (≤ 80) | 
5 | COc1ccnc(C(=O)N[C@H](C)C(=O)O[C@H](C)[C@H](Oc2ccccc2)C(C)C)c1OCOC(C)=O [Cmpd 560] | B (≤ 80) | B (≤ 80) | D | D | B (≤ 80) | 
6 | COc1ccnc(C(=O)N[C@@H](C)C(=O)O[C@@H](C)[C@H](Oc2ccccc2Cl)c2ccccc2)c1OC(C)=O [Cmpd 640] | A (> 80) | A (> 80) | A (> 80) | A (> 80) | A (> 80) | 
7 | CC[C@@H](CCOC)[C@@H](Oc1ccccc1)[C@H](C)OC(=O)[C@H](C)NC(=O)c1nccc(OC)c1OC(C)=O [Cmpd 482] | A (> 80) | A (> 80) | A (> 80) | A (> 80) | A (> 80) | 
8 | COc1ccnc(C(=O)N[C@@H](C)C(=O)O[C@@H](C)[C@H](Oc2ccccc2)C(C)C)c1OCOC(C)=O [Cmpd 475] | A (> 80) | A (> 80) | A (> 80) | A (> 80) | A (> 80) | 
9 | CCCOC(CC)C(Oc1ccccc1)C(C)OC(=O)C(C)NC(=O)c1nccc(OC)c1OCOC(C)=O (stereo not shown) [Cmpd 446] |  |  |  |  | B (≤ 80) | SEPTTR 1DP disease control rating, HV activity (Zymoseptoria tritici; HV application at 100 ppm, 1 Day Protectant, wheat leaf blotch): A (> 80); SEPTTR 3DC disease control rating, HV activity (Zymoseptoria tritici; HV application at 100 ppm, 3 Day Curative, wheat leaf blotch): A (> 80); SEPTTR 1DP disease control rating, LV activity (Zymoseptoria tritici; Low volume application at 125.1 g/H, 1 Day Protectant, wheat leaf blotch): A (> 80); SEPTTR 3DC disease control rating, LV activity (Zymoseptoria tritici; Low volume application at 125.1 g/H, 3 Day Curative, wheat leaf blotch): A (> 80); PUCCRT 1DP disease control rating, HV activity (Puccinia triticina; HV application at 100 ppm, 1 Day Protectant, wheat brown rust): A (> 80); PUCCRT 3DC disease control rating, HV activity (Puccinia triticina; HV application at 100 ppm, 3 Day Curative, wheat brown rust): A (> 80); PUCCRT 1DP disease control rating, LV activity (Puccinia triticina; Low volume application at 125.1 g/H, 1 Day Protectant, wheat brown rust): A (> 80); PUCCRT 3DC disease control rating, LV activity (Puccinia triticina; Low volume application at 125.1 g/H, 3 Day Curative, wheat brown rust): A (> 80)
10 | COc1ccnc(C(=O)N[C@@H](C)C(=O)O[C@@H](C)[C@H](Oc2cccc(Cl)c2)c2ccccc2)c1OCOC(C)=O [Cmpd 637] | A (> 80) | A (> 80) | A (> 80) | B (≤ 80) | B (≤ 80) | 
11 | CCC(C)C(Oc1ccccc1)C(C)OC(=O)C(C)NC(=O)c1nccc(OC)c1OCOC(C)=O (stereo not shown) [Cmpd 692] |  |  |  |  | A (> 80) | SEPTTR 1DP disease control rating, LV activity at 125.1 g/H (Zymoseptoria tritici): A (> 80); SEPTTR 3DC disease control rating, LV activity at 125.1 g/H (Zymoseptoria tritici): A (> 80); PUCCRT 1DP disease control rating, LV activity at 125.1 g/H (Puccinia triticina): A (> 80); PUCCRT 3DC disease control rating, LV activity at 125.1 g/H (Puccinia triticina): A (> 80)
12 | COc1ccnc(C(=O)N[C@@H](C)C(=O)O[C@@H](C)[C@@H](Oc2ccccc2)C(C)C)c1OCOC(C)=O [Cmpd 552] | A (> 80) | A (> 80) | A (> 80) | A (> 80) | B (≤ 80) | 
13 | COc1ccnc(C(=O)N[C@@H](C)C(=O)O[C@@H](C)[C@H](Oc2cc(F)cc(Cl)c2)c2ccccc2)c1OC(C)=O [Cmpd 642] | A (> 80) | A (> 80) | A (> 80) | B (≤ 80) | A (> 80) | 
14 | CCC(CC)[C@@H](Oc1ccccc1)[C@H](C)OC(=O)[C@H](C)NC(=O)c1nccc(OC)c1OC(C)=O [Cmpd 479] | A (> 80) | A (> 80) | A (> 80) | A (> 80) | A (> 80) | 
15 | COc1ccnc(C(=O)N[C@@H](C)C(=O)O[C@@H](C)[C@@H](CC(C)C)Oc2ccccc2)c1OCOC(C)=O [Cmpd 557] | A (> 80) | A (> 80) | A (> 80) | A (> 80) | B (≤ 80) | 
